Like-named read-outs stand apart in the source and are kept apart here.
Assays:
SIRT6 = SIRT6 (Homo sapiens, UniProt Q8N6T7); assay: Histone H3 deacetylation in HEK293T cells (western blot); assay type: cell-based; set-up: endogenous in cells; host or cells: HEK293T; conditions: dose-dependent
Experimental: Western blot analysis was performed as described previously. […] After 48 h of treatment, the cells were lysed with 1× SDS and separated by SDS-PAGE, followed by incubation with specific primary antibodies overnight at 4 °C and then with HRP-linked anti-rabbit IgG (#7074, Cell Signaling Technology) or HRP-linked anti-mouse IgG (#7076, Cell Signaling Technology). An Immobilon Western Chemiluminescent HRP Substrate Kit (Merck Millipore) was used for detection. Information regarding the primary antibodies can be found in Table S6. Quantification of western blot data was performed using ImageJ V4.

26 CRC cell lines = assay: Cell proliferation, CCK-8, panel of 26 CRC cell lines; assay type: cell-based; conditions: Homo sapiens, CCK-8, 48 h
Experimental: Cell proliferation was evaluated using a Cell Counting Kit-8 (CCK-8) (Dojindo) following the manufacturer's instructions. Briefly, CRC cells were plated in 96-well plates at a density of 5 × 10^3 cells per well. […] Cells treated with DMSO were used as the […] controls, and the final DMSO concentration in the medium was 0.1%. After 48 h of treatment, 10 μL of CCK-8 solution was added to every well and incubated for 1 h at 37 °C. Then, a microplate reader (Synergy H4 Hybrid Reader, BioTek) was used to measure the absorbance of the solvent at 450 nm. The background of drug and culture medium has been deducted in each well. The relative cell proliferation of each treatment group was expressed as the percentage change relative to the […] control group. Each data point is the mean ± s.d. of two or three independent experiments.

CYP24A1 = assay: RT-qPCR of CYP24A1 mRNA in CRC cells; assay type: cell-based, human
Experimental: Total RNA was extracted with TRIzol reagent (Invitrogen) according to the manufacturer's instructions. For cDNA synthesis, 1 μg of total RNA was reverse transcribed using a FastKing RT Kit (Tiangen). RT-qPCRs were run in triplicate using SYBR Green master mix (Roche) in an ABI 7900 Thermal Cycler (Applied Biosystems) according to the manufacturer's instructions. RT-qPCRs were performed in triplicate, and the mean cycle threshold (Ct) values were calculated for expression analysis. The mRNA levels of target genes were calculated using the 2^-ΔΔCt method. The expression data were normalized to β-actin expression levels and are presented as the mean ± s.e.m. of three independent experiments.

SW480 = assay: Cell cycle analysis (PI staining, flow cytometry); assay type: cell-based, human; conditions: for cell cycle phase distribution, G2/M: 48 h (0 µM: 13.9 ± 1.8); for cell cycle phase distribution, S: 48 h (0 µM: 38.3 ± 3.6); for cell cycle phase distribution, G0/G1: 48 h (0 µM: 47.7 ± 1.3)
Experimental: (§1) Then, cells were collected and fixed with 75% ethanol at 4 °C overnight. The cells were incubated with RNase I (50 μg/mL) in 1× PBS at 37 °C for 30 min and stained with propidium iodide (50 μg/mL) for 15 min. The cells were analyzed by flow cytometry and FACS DIVA software, v6.2 (BD Biosciences). The cell cycle distribution was analyzed using FlowJo 7.6.1 software. The data are presented as the mean ± s.d. of three independent experiments.

HCT116 = assay: Cell cycle analysis (PI staining, flow cytometry); assay type: cell-based, human; conditions: for cell cycle phase distribution, G2/M: 48 h (0 µM: 20.4 ± 4.5); for cell cycle phase distribution, S: 48 h (0 µM: 30.1 ± 4.4); for cell cycle phase distribution, G0/G1: 48 h (0 µM: 49.5 ± 3.5)
Experimental: as §1

HT29 = assay: Cell cycle analysis (PI staining, flow cytometry); assay type: cell-based, human; conditions: for cell cycle phase distribution, G2/M: 48 h (0 µM: 22.6 ± 6.7); for cell cycle phase distribution, S: 48 h (0 µM: 36.9 ± 4.6); for cell cycle phase distribution, G0/G1: 48 h (0 µM: 40.5 ± 2.6)
Experimental: as §1

[1] = system: PDX tumors from CRC patients #1 and #2; assay: CRC PDX models; assay type: in vivo, nude mice; conditions: 30 mg/kg intraperitoneally every other day for 12 days, two PDX models
Experimental: All animal studies were performed following federal and institutional guidelines approved by the Institutional Animal Care and Use Committee at Shanghai Jiao-Tong University School of Medicine. To establish the CDXs, HCT116 cells (1 × 10^6) suspended in 100 μL of 1× PBS were injected subcutaneously into the flanks of six-week-old male BALB/c nude mice. To establish the PDXs, primary tumors resected from two independent CRC patients (patient #1 and #2) were collected in the culture medium. The necrotic and supporting tissues were carefully removed using sterilized surgical blades. The gross tumor was cut into fragments (2-3 mm in diameter) and inoculated subcutaneously into the flanks of nude mice. The mice were monitored daily, and caliper measurements began when tumors became visible. The tumor volume was monitored every other day via calipers. The tumor volume was calculated using the following formula: (L × W ^2) / 2, where L and W refer to the tumor diameter along the longitudinal and transverse axes, respectively. When the mean tumor volume was approximately 100 to 250 mm^3, the mice were randomly grouped (n = 6 per group for CDXs, n = 8 per group for PDXs), and treatment was initiated. […] After treatment or if meeting the humane endpoint criteria, the mice were sacrificed by CO2 asphyxiation. The tumors were dissected, imaged, and weighed. […]

SIRT6, sequence (Q8N6T7 whole entry): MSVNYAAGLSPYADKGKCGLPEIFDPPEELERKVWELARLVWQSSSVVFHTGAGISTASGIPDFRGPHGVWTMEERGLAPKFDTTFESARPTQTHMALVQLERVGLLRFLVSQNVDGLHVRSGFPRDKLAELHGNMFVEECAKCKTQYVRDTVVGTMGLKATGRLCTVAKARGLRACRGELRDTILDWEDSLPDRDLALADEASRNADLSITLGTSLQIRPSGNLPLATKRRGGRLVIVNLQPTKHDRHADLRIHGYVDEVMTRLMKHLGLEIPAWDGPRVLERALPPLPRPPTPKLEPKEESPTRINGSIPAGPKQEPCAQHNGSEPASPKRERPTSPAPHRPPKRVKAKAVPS

SMILES: Cc1cc(F)c(Br)cc1NS(=O)(=O)c1ccc(NS(=O)(=O)c2cc(Cl)cc(Cl)c2)cc1CN1CCOC[C@H]1C [MDL-811]
- deacetylation of H3K9Ac, H3K18Ac, and H3K56Ac (SIRT6): significantly enhanced the deacetylation of SIRT6 (H3K9Ac, H3K18Ac, and H3K56Ac)
- IC50 (26 CRC cell lines; more than 75% (20 of 26) of the CRC cell lines, read-out: IC50 in 20 of 26 CRC cell lines): < 25 µM
- IC50 (26 CRC cell lines; range over 26 CRC cell lines, read-out: IC50 values across the 26 CRC cell lines): 4.7 to 61 µM
- 1,25(OH)2D3-enhanced CYP24A1 transcription, cotreatment (CYP24A1; HCT116 and HT29 cells, MDL-811 (5 µM) plus 1,25(OH)2D3 (5 µM), 48 h): effectively abolished
- CYP24A1 mRNA expression levels (CYP24A1; HCT116 cells, 10 µM MDL-811, 48 h): markedly decreased CYP24A1 mRNA expression levels
- cell cycle phase distribution, G2/M (SW480; SW480, 5 µM): 10.8 ± 4.4
- cell cycle phase distribution, S (SW480; SW480, 5 µM): 26.3 ± 5.1
- cell cycle phase distribution, G0/G1 (SW480; SW480, 5 µM): 62.9 ± 6.0
- cell cycle phase distribution, G2/M (SW480; SW480, 10 µM): 11.9 ± 6.4
- cell cycle phase distribution, S (SW480; SW480, 10 µM): 18.1 ± 4.9
- cell cycle phase distribution, G0/G1 (SW480; SW480, 10 µM): 70.0 ± 3.8
- cell cycle phase distribution, G2/M (HCT116; HCT116, 5 µM): 17.9 ± 4.0
- cell cycle phase distribution, S (HCT116; HCT116, 5 µM): 19.0 ± 2.3
- cell cycle phase distribution, G0/G1 (HCT116; HCT116, 5 µM): 63.2 ± 2.1
- cell cycle phase distribution, G2/M (HCT116; HCT116, 10 µM): 14.1 ± 3.8
- cell cycle phase distribution, S (HCT116; HCT116, 10 µM): 19.0 ± 4.3
- cell cycle phase distribution, G0/G1 (HCT116; HCT116, 10 µM): 66.9 ± 1.4
- cell cycle phase distribution, G2/M (HT29; HT29, 5 µM): 20.2 ± 4.2
- cell cycle phase distribution, S (HT29; HT29, 5 µM): 25.3 ± 4.5
- cell cycle phase distribution, G0/G1 (HT29; HT29, 5 µM): 54.5 ± 4.1
- cell cycle phase distribution, G2/M (HT29; HT29, 10 µM): 20.5 ± 3.7
- cell cycle phase distribution, S (HT29; HT29, 10 µM): 19.6 ± 2.3
- cell cycle phase distribution, G0/G1 (HT29; HT29, 10 µM): 59.9 ± 2.7
- tumor growth [1]: strong tumor regression in both PDX models

Reference: publication PMC7255010, “Small-molecule activating SIRT6 elicits therapeutic effects and synergistically promotes anti-tumor activity of vitamin D3 in colorectal cancer” (Theranostics, 2020)
